Measured values as given in patent US10259777B2, “(E)-3-(3,4-dihydroxyphenyl)-N-(prop-2-yn-1-yl)acrylamide for treatment of neurodegenerative diseases” (THE UNIVERSITY OF HONG KONG, priority 2015, dated 2019).

Key:
[1] = system: mouse model of Parkinson's disease; assay: MPTP-induced motor dysfunctions, rotarod and pole test; type: in vivo, mice; settings: PACA 15 mg/kg p.o. and MPTP 25 mg/kg i.p. daily for seven days, rotarod and pole test at day-8
Description: FIG. 11. In vivo Effect of PACA on MPTP-induced motor dysfunctions in mice. (A) Study design. (B) Rotarod test. Mice were placed on horizontal drums (30 mm in diameter), rotating at a progressively increasing speed, from 4 to 32 rpm over a 5-min period. The time that each animal stayed on the rod before falling was measured. (C) Pole test. Mice were placed with facing head-up on the top of the 50 cm long metal rod (1 cm diameter). Total time for each animal to reach the base of the pole was recorded. Each mouse was tested for three times. The data were presented as Mean±SEM and analyzed by one-way ANOVA with post-hoc Dunnett test. *p<0.05; **, p<0.01.
The in vivo neuroprotective effect of PACA was evaluated in a mouse model of Parkinson's disease. Nineteen mice were randomly divided into three groups: control (n=5), receiving vehicle administrations; MPTP (n=7), receiving i.p. injection of MPTP (25 mg/kg) every afternoon for seven days; MPTP+PACA (n=7), receiving p.o administration of PACA (15 mg/kg) every morning and i.p. injection of MPTP (25 mg/kg) every afternoon for seven days. At day-8, the motor functions of mice were assessed by rotarod performance test and pole test.

[2] = target: T1, Keap1 (Rattus norvegicus, UniProt P57790); assay: Identification of PACA-modified proteins by Click chemistry biotin tagging and affinity isolation; type: cell-based; settings: 20 μM PACA, biotin tag by Click chemistry, Keap1 antibody pull-down
T1 construct: endogenous in cells; host or cells: PC12 (rat pheochromocytoma) cells
Description: PACA directly modifies the proteins bearing free cysteine residues after oxidase-mediated oxidation into chemically reactive o-quinone. At the end of 24 hour incubation, a biotin tag was introduced to the proteins that were covalently modified by PACA. Following affinity isolation with anti-Keap1 antibody bead, streptavidin-horseradish peroxidase (HRP) detected Keap1 as the predominant PACA-modified protein with the apparent molecular size of ˜72 kDa. (A) Biotinylation of PACA-modified proteins by Click chemistry. Oxidase represents the enzymes that oxidize PACA to o-quinone, Protein-SH represents the protein bearing free cysteine residues. (B) Procedure for the isolation of PACA-modified proteins. (C) Western blotting analysis of PACA-modified proteins. PC12 cells were treated with PACA (20 μM) for 6 h. […] All protein fractions were resolved by SDS-PAGE and detected by streptavidin-HRP conjugate. […]
PACA is converted to the chemically reactive o-quinone intermediate by the intracellular oxidases after PACA got inside the cells. […] Following gel electrophoresis and Western blotting onto PVDF (polyvinylidene difluoride) membranes, HRP-streptavidin conjugate detected a predominant ˜70 kDa protein band (data not shown). Such protein band was also detected by keap1 antibody through a similar procedure. […] The blots were probed by HRP-conjugated streptavidin, and subsequently detected by chemiluminescence. […]

[3] = system: β3-tubulin, MAP2 and GAP-43; assay: Western blot of neuronal biomarkers in PC12 cells; type: cell-based, rat; settings: PACA and NGF, alone or in combination
Description: The neuritogenic potential of PACA was verified by the induction of the main neuronal biomarkers (i.g., β3-tubulin, MAP-2 and GAP43). (A) Representative images for the potentiation of NGF-induced neurite outgrowth in PC12 cells by PACA. PC12 cells were treated with NGF (2 ng/ml) and PACA, alone or in combination. The cells were stained with neurite outgrowth staining kit and imaged under a fluorescence microscope. (B) Quantification of neurite outgrowth in Panel A. Following the staining of neurites, the cells bearing neurites longer than 20 μm were counted under a fluorescence microscope. **, p<0.01 (sample vs NGF alone). (C) Western blot analysis of neuronal biomarkers. The cells were treated with NGF and PACA, alone or in combination, whereas the control cells were treated with vehicle for 72 hours. The cellular proteins were extracted and detected by Western blot analysis for the expression of neuron marker. GAPDH was detected as the control of protein loading.
The neuritogenic activity of PACA was evaluated in rat dopaminergic PC12 cells. […] The cells were stained by a neurite outgrowth kit, and subsequently analyzed for neurites (>20 μm) under a fluorescence microscope. […] Following the treatment with PACA and NGF, alone or in combination, PC12 cells were analyzed by Western blotting for the expression of neuronal biomarkers (i.g., β3-tubulin, MAP2 and GAP-43).

T1 sequence (P57790 whole entry): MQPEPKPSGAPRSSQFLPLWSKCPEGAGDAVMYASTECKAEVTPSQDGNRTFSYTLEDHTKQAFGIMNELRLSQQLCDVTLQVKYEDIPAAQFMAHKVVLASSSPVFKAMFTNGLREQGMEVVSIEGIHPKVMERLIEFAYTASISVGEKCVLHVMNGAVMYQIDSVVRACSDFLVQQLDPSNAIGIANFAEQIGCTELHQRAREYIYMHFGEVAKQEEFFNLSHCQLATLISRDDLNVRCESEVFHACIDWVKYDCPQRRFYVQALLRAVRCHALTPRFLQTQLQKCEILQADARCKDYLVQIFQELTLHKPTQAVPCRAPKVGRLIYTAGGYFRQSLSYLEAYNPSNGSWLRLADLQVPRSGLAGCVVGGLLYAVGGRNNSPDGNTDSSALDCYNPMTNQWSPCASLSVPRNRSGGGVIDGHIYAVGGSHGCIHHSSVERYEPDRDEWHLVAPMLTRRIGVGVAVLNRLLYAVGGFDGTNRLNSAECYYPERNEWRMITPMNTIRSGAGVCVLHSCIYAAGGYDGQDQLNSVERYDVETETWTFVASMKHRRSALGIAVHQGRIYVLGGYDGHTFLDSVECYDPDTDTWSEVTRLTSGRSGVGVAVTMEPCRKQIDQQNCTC

## C#CCNC(=O)/C=C/c1ccc(O)c(O)c1 [PACA, (E)-3-(3,4-dihydroxyphenyl)-N-(prop-2-yn-1-yl)acrylamide]
[1]
  protection against MPTP-induced motor dysfunctions: effectively protected animals against MPTP-induced motor dysfunctions
[2]
  PACA-modified protein isolated from treated PC12 cells: kelch-like ECH-associated protein 1 (Keap1) was isolated as the predominant protein
[3]
  induction of neuronal markers β3-tubulin, MAP2 and GAP-43: enhanced the neuritogenic activity of NGF in a concentration-dependent manner
